# Laboratory results: PMC12436592 (Nature Communications, 2025)
# Entries after “also recorded” stand apart in the source; their conditions may differ.
# Assays:
# hP2X1R = target: T1, hP2X1R (Homo sapiens, UniProt P51575); experiment: Calcium influx assay, 1321N1 astrocytoma cells, ATP EC80; format: cell-based; settings: 1321-N1, read-out: % inhibition ± SD at 10 μM, hP2X1R, 10 μM antagonist, ATP 100 nM
# T1 sequence (P51575 51-338 limits assumed): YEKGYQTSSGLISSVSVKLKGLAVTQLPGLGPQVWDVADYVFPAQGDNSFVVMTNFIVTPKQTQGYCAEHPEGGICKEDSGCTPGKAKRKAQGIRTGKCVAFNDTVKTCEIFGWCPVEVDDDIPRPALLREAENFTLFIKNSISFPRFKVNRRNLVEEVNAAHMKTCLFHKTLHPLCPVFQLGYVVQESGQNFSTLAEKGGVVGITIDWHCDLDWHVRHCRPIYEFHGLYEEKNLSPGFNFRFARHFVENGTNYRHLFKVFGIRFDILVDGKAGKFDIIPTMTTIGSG
# Text: . For 1321N1 astrocytoma cells stably expressing the human, rat, or mouse P2X7Rs, or hP2X2Rs or hP2X4Rs, the fluorescent Ca^2+-chelating dye Fluo-4 acetoxymethyl ester (Fluo-4 AM, Thermo Fisher Scientific, Dreieich, Germany) was used. For 1321N1 astrocytoma cell lines recombinantly expressing the hP2X1Rs or hP2X3Rs, the FLIPR® Calcium 5 Assay Kit (Molecular Devices, San José, CA, USA) was employed. Human, rat, and mouse P2X7Rs as well as hP2X1Rs, hP2X2Rs, hP2X3Rs, and hP2X4Rs were recombinantly expressed in 1321N1 astrocytoma cells using a retroviral expression system[72]–[74].
# On the first day, 45,000 cells per well (30,000 cells for the human P2X3 receptor-expressing cells) were seeded into a 96-well polystyrene microplate with a black, flat bottom in a final volume of 200 µL. […] After 30 min of incubation with antagonist, the plates were measured using a fluorescence imaging plate reader NOVOstar (BMG Labtech GmbH, Offenburg, Germany) at an excitation wavelength of 485 nm and an emission wavelength of 520 nm, for 30 s at 0.4 s intervals. Calcium influx measurements were then initiated by automatic addition of 20 µL of agonist solution by the plate reader’s pipetting device. Data were analyzed using Microsoft Excel and GraphPad Prism (Version 8.0, San Diego, CA, USA). EC80 and IC50 values were calculated using nonlinear regression with a sigmoidal dose-response equation.
# hP2X4R = test system: T2, hP2X4R; experiment: TEVC current traces with co-applied antagonist in Xenopus oocytes; format: cell-based, human; settings: 300 µM ATP, 100 nM antagonist
# T2 construct: expressed in transfected cells; host or cells: Xenopus laevis oocytes (cRNA, pNKS2 vector)
SMILES,inhibition at 10 µM (hP2X1R) [%],antagonism of the hP2X4R (hP2X4R)
"O=C(NNc1ccccc1Cl)C12CC3CC(CC(C3)C1)C2 [UB-ALT-P30, reference compound]",36 ± 8,–
CC12CC3CC1(C)C1(C)CC3(C(=O)NNc3ccccc3Cl)CC21C [UB-MBX-46],–,virtually no antagonism; also recorded: negligible
